Measurements as given in PubChem BioAssay (NCI).
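Dose response: 5 concentrations. Exposure: 48 h. Format: 96-well plates. Endpoint: linear interpolation; highest concentration if not reached. The concentration for 50% growth inhibition is given as GI50. TGI: concentration producing complete growth inhibition.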

Assays:
Assay in all cases: NCI tumour cell line growth inhibition, 48 h
[1] = test system: HL-60(TB) leukemia
[2] = test system: BT-549 breast
[3] = test system: U251 CNS
[4] = test system: SK-MEL-28 melanoma
[5] = test system: SF-295 CNS
[6] = test system: T-47D breast
[7] = test system: NCI-H460 lung
[8] = test system: COLO 205 colon
[9] = test system: NCI-H522 lung
[10] = test system: LOX IMVI melanoma
[11] = test system: HCT-15 colon
[12] = test system: A498 renal
[13] = test system: UO-31 renal
[14] = test system: 786-0 renal
[15] = test system: SN12C renal
[16] = test system: ACHN renal
[17] = test system: CCRF-CEM leukemia
[18] = test system: MOLT-4 leukemia
[19] = test system: UACC-257 melanoma
[20] = test system: SNB-19 CNS
[21] = test system: CAKI-1 renal
[22] = test system: UACC-62 melanoma
[23] = test system: NCI-H226 lung
[24] = test system: M14 melanoma
[25] = test system: SK-OV-3 ovarian
[26] = test system: EKVX NSCLC
[27] = test system: KM12 colon
[28] = test system: PC-3 prostate
[29] = test system: IGROV1 ovarian
[30] = test system: SR leukemia
[31] = test system: RPMI-8226 leukemia
[32] = test system: HCC-2998 colon
[33] = test system: SF-539 CNS
[34] = test system: MDA-MB-231 breast
[35] = test system: HOP-62 NSCLC
[36] = test system: TK-10 renal
[37] = test system: A549 NSCLC
[38] = test system: HS 578T breast
[39] = test system: NCI-H23 lung
[40] = test system: OVCAR-4 ovarian
[41] = test system: HCT-116 colon
[42] = test system: HT29 colon
[43] = test system: MDA-MB-435
[44] = test system: OVCAR-5 ovarian
[45] = test system: SNB-75 CNS
[46] = test system: HOP-92 NSCLC
[47] = test system: MCF7 breast
[48] = test system: K-562 leukemia
[49] = test system: RXF 393 renal
[50] = test system: DU-145 prostate
[51] = test system: SK-MEL-2 melanoma
[52] = test system: OVCAR-3 ovarian
[53] = test system: SW-620 colon
[54] = test system: SK-MEL-5 melanoma
[55] = test system: MALME-3M melanoma
[56] = test system: NCI/ADR-RES ovarian
[57] = test system: SF-268 CNS
[58] = test system: OVCAR-8 ovarian

Q: `CC(CNC(Cc1ccccc1)c1ccccc1)NC(Cc1ccccc1)c1ccccc1` (stereo unspecified) was tested. Which GI50 [1] did it give?
A: 2 µM

Q: And the TGI [1]?
A: 4.51 µM

Q: What about the GI50 [2] of the same compound?
A: 2.01 µM

Q: And the TGI [2]?
A: 5.16 µM

Q: And the GI50 [3]?
A: 2.59 µM

Q: What about the TGI [3] of the same compound?
A: 7.37 µM

Q: And the GI50 [4]?
A: 2.84 µM

Q: And the TGI [4]?
A: 7.81 µM

Q: And the GI50 [5]?
A: 1.52 µM

Q: And the TGI [5]?
A: 3.27 µM

Q: What about the GI50 [6] of the same compound?
A: 1.96 µM

Q: And the TGI [6]?
A: 4.95 µM

Q: What about the GI50 [7] of the same compound?
A: 2.03 µM

Q: What about the TGI [7] of the same compound?
A: 4.06 µM

Q: What about the GI50 [8] of the same compound?
A: 1.66 µM

Q: What about the TGI [8] of the same compound?
A: 3.46 µM

Q: What about the GI50 [9] of the same compound?
A: 1.63 µM

Q: What about the TGI [9] of the same compound?
A: 3.5 µM

Q: And the GI50 [10]?
A: 1.62 µM

Q: What about the TGI [10] of the same compound?
A: 2.98 µM

Q: And the GI50 [11]?
A: 2 µM

Q: And the TGI [11]?
A: 4.87 µM

Q: What about the GI50 [12] of the same compound?
A: 2.26 µM

Q: And the TGI [12]?
A: 5.02 µM

Q: What about the GI50 [13] of the same compound?
A: 1.87 µM

Q: And the TGI [13]?
A: 6.06 µM

Q: And the GI50 [14]?
A: 1.67 µM

Q: What about the TGI [14] of the same compound?
A: 3.36 µM

Q: What about the GI50 [15] of the same compound?
A: 2.22 µM

Q: What about the TGI [15] of the same compound?
A: 6.38 µM

Q: And the GI50 [16]?
A: 2.93 µM

Q: What about the TGI [16] of the same compound?
A: 8.85 µM

Q: What about the GI50 [17] of the same compound?
A: 2.74 µM

Q: What about the TGI [17] of the same compound?
A: 7.84 µM

Q: And the GI50 [18]?
A: 2.06 µM

Q: What about the TGI [18] of the same compound?
A: 6.03 µM

Q: What about the GI50 [19] of the same compound?
A: 2.67 µM

Q: What about the TGI [19] of the same compound?
A: 6.9 µM

Q: What about the GI50 [20] of the same compound?
A: 3.19 µM

Q: What about the TGI [20] of the same compound?
A: 13.5 µM

Q: What about the GI50 [21] of the same compound?
A: 2.16 µM

Q: What about the TGI [21] of the same compound?
A: 7.45 µM

Q: What about the GI50 [22] of the same compound?
A: 1.8 µM

Q: What about the TGI [22] of the same compound?
A: 3.8 µM

Q: And the GI50 [23]?
A: 1.94 µM

Q: What about the TGI [23] of the same compound?
A: 4.09 µM

Q: What about the GI50 [24] of the same compound?
A: 1.79 µM

Q: What about the TGI [24] of the same compound?
A: 3.6 µM

Q: And the GI50 [25]?
A: 5.34 µM

Q: What about the TGI [25] of the same compound?
A: 16.8 µM

Q: What about the GI50 [26] of the same compound?
A: 2.47 µM

Q: What about the TGI [26] of the same compound?
A: 9.16 µM

Q: What about the GI50 [27] of the same compound?
A: 2.36 µM

Q: What about the TGI [27] of the same compound?
A: 5.85 µM

Q: And the GI50 [28]?
A: 2.3 µM

Q: And the TGI [28]?
A: 6.42 µM

Q: What about the GI50 [29] of the same compound?
A: 2.76 µM

Q: What about the TGI [29] of the same compound?
A: 10.5 µM

Q: And the GI50 [30]?
A: 1.84 µM

Q: And the TGI [30]?
A: 4.49 µM

Q: And the GI50 [31]?
A: 2.23 µM

Q: What about the TGI [31] of the same compound?
A: 4.88 µM

Q: And the GI50 [32]?
A: 2.03 µM

Q: And the TGI [32]?
A: 4.45 µM

Q: And the GI50 [33]?
A: 1.93 µM

Q: What about the TGI [33] of the same compound?
A: 3.69 µM

Q: What about the GI50 [34] of the same compound?
A: 1.81 µM

Q: And the TGI [34]?
A: 3.7 µM

Q: What about the GI50 [35] of the same compound?
A: 3.41 µM

Q: What about the TGI [35] of the same compound?
A: 12.4 µM

Q: And the GI50 [36]?
A: 3.22 µM

Q: What about the TGI [36] of the same compound?
A: 12.5 µM

Q: And the GI50 [37]?
A: 4.18 µM

Q: What about the TGI [37] of the same compound?
A: 15 µM

Q: What about the GI50 [38] of the same compound?
A: 2.64 µM

Q: What about the TGI [38] of the same compound?
A: 8.27 µM

Q: And the GI50 [39]?
A: 1.94 µM

Q: What about the TGI [39] of the same compound?
A: 4.46 µM

Q: What about the GI50 [40] of the same compound?
A: 2.59 µM

Q: What about the TGI [40] of the same compound?
A: 10.6 µM

Q: And the GI50 [41]?
A: 1.37 µM

Q: And the TGI [41]?
A: 2.86 µM

Q: And the GI50 [42]?
A: 1.97 µM

Q: And the TGI [42]?
A: 4.04 µM

Q: What about the GI50 [43] of the same compound?
A: 2.1 µM

Q: And the TGI [43]?
A: 4.99 µM

Q: And the GI50 [44]?
A: 2.73 µM

Q: What about the TGI [44] of the same compound?
A: 8.76 µM

Q: What about the GI50 [45] of the same compound?
A: 2.07 µM

Q: And the TGI [45]?
A: 11.7 µM

Q: What about the GI50 [46] of the same compound?
A: 1.83 µM

Q: What about the TGI [46] of the same compound?
A: 4.09 µM

Q: And the GI50 [47]?
A: 2.08 µM

Q: What about the TGI [47] of the same compound?
A: 5.16 µM

Q: What about the GI50 [48] of the same compound?
A: 2.48 µM

Q: What about the TGI [48] of the same compound?
A: 6.41 µM

Q: And the GI50 [49]?
A: 1.66 µM

Q: And the TGI [49]?
A: 3.19 µM

Q: And the GI50 [50]?
A: 3.95 µM

Q: And the TGI [50]?
A: 14.7 µM

Q: What about the GI50 [51] of the same compound?
A: 2.18 µM

Q: What about the TGI [51] of the same compound?
A: 4.28 µM

Q: And the GI50 [52]?
A: 2.07 µM

Q: And the TGI [52]?
A: 4.56 µM

Q: What about the GI50 [53] of the same compound?
A: 2.75 µM

Q: What about the TGI [53] of the same compound?
A: 8.53 µM

Q: What about the GI50 [54] of the same compound?
A: 1.79 µM

Q: What about the TGI [54] of the same compound?
A: 3.23 µM

Q: And the GI50 [55]?
A: 1.68 µM

Q: And the TGI [55]?
A: 3.36 µM

Q: What about the GI50 [56] of the same compound?
A: 1.83 µM

Q: And the TGI [56]?
A: 4.17 µM

Q: What about the GI50 [57] of the same compound?
A: 3.6 µM

Q: What about the TGI [57] of the same compound?
A: 14.3 µM

Q: And the GI50 [58]?
A: 2.6 µM

Q: What about the TGI [58] of the same compound?
A: 6.17 µM
